22 compounds from patent EP0024776A1, “4-Phenyl and 5-phenyl-1,4,5,6-tetrahydropyrimidine derivatives, pharmaceutical compositions containing said derivatives, and process for preparing said derivatives” (SYNTEX (U.S.A.) INC., priority 1979, dated 1981) can be followed below.

One data set has as its system tonic extensor seizure. Briefly: Anticonvulsant activity - maximal electroshock test. The conditions noted are these: Mus musculus, ip, 0.25 h; i.p. fifteen minutes prior to transcorneal electroshock (50 mamp. 0.2sec); antagonism of tonic extensor seizure. The data set is classed as in vivo, mice. How it is done: ANTICONVULSANT ACTIVITY - MAXIMAL ELECTROSHOCK TEST This assay was used to evaluate the anticonvulsant activity of compounds of this invention. Groups of 10 male Hilltop ICR mice were utilized for these experiments. At fifteen minutes prior to testing, drug or vehicle was administered intraperitoneally (i.p.). At the appropriate time the mice were subjected to a transcorneal electroshock generated by a stimulator (Woodbury, L.A. and Davenport, V.D.: Design and Use Of A New Electroshock Seizure Apparatus And Analysis Of Factors Altering Seizure Threshold And Pattern. Arch. Intern. Pharmacodyn. Ther. 92: 97-107,1952). The shock (50 […]) elicited three types of seizures: tonic extension, tonic flexion and clonic seizures. For the purposes of this test, the antagonism of the tonic extensor seizure was utilized as an endpoint. The quantal data accumulated from several doses of a test compound were utilized to determine an ED50 (Litchfield, J.F. and Wilcoxon, F.: A Simplified Method of Evaluating Dose-effect Experiments). J. Pharmacol. Exp. Ther. 96: 99-113, 1949).
A general note: In the maximal electroshock model the usual endpoint is tonic extension of the hind limbs.

The test system of data set [1] is reserpine-induced hypothermia. Briefly: Reversal of reserpine-induced hypothermia in mice (potential antidepressant activity). The data set is classed as in vivo. The conditions noted are these: Mus musculus, po; minimum effective dose, p.o., statistically significant reversal of hypothermia induced by reserpine 5mg/kg i.p.; body temperature 1-4 hours post-drug; read-out: MED. Here is the method:
REVERSAL OF RESERPINE-INDUCED HYPOTHERMIA IN MICE
The assay was used to evaluate the potential antidepressant activity of compounds of this invention.
Male Swiss-Webster Institute for Cancer Research mice weighing 18-24g were utilized for these experiments. The mice, having been in holding quarters for a minimum of 5 days, were placed in plexi-glass cages 17cm by 20cm with sanicel bedding. Five of the 6 groups of 10 mice each, received reserpine, 5mg/kg, i.p. The reserpine (lOmg) was dissolved in 0.06ml glacial acetic acid and 20ml water. The sixth group was not pretreated. Two hours later the mice were dosed with either water or test compound at various doses. The group which had not received the reserpine pretreatment was also dosed with water; consequently a postive and a negative control group were present. The test compounds were administered orally (p.o.) in logarithmically spaced doses.
One hour after the oral dosing, body temperatures were taken from 8 mice from each group utilizing a Yellow Springs-Telethermometer unit. Repeated determinations of body temperature occured at 2, 3 and 4 hours post-drug.
The percent reversal of the reserpine-induced hypothermia was determined according to the formula: [formula] and subjected to an analysis of variance (X = average body temperature of mice from the group). Statistically significant reversal of the reserpine-induced hypothermia was used as a criterion for determining the minimum effective dose (MED) of the compound.

A further data set relates to male mice (ICR-Simonsen). Briefly: Acute intraperitoneal toxicity and behavior in mice (Example 14). The conditions noted are these: for No. of Deaths: 5 mice.
Assay in data set [2]: as above
The conditions noted are these: mouse, in vivo, ip.

In another data set the test system is jaw opening reflex. Briefly: Centrally acting skeletal muscle relaxant assay - cat linguomandibular reflex preparation. The format is in vivo. The conditions noted are these: Felis catus, iv, anesthetized cats; percent reduction of the jaw opening reflex. How it is done: This assay is used to assess the centrally acting skeletal muscle relaxant properties of compounds of this invention.
Mongrel cats weighing 2-Skg were anesthetized with phenobarbital sodium, 180mg/kg, i.p. The anesthetized cat was placed in a stereotaxic headholder, shaved, and the femoral artery and vein were cannulated. The cannula from the fermoral artery was connected to a Statham Model P-23 AC Transducer in order to monitor blood pressure. The femoral vein was utilized for the administration of drugs.
The cat was placed in a prone position and two electrodes, consisting of wound clips soldered to wires, were attached bilaterally to the base of the tongue. These leads were then connected to a Grass S8 stimulator. A Grass FT-03 Transducer was placed beneath the jaw. […] Signals from the transducers were recorded on a Beckman Polygraph.
The stimulator was set to deliver single pulses of 2.5msec duration. […] Once the response had ben determined to be stable, drug solution was administered i.v. in logarithmically spaced doses. […]
The percent reduction of the jaw opening reflex was utilized for determining the activity of the drug. Comparisons of the relative block of the reflex, the steepness of the dose response curve, and the cardiovascular sequel were evaluated and an ED50 determined.

For `CCCOC(=O)NC1=NC(c2ccccc2)CCN1` (centres unmarked) [2-n-propoxycarbonylamino-4-phenyl-1,4,5,6-tetrahydropyrimidine], it took a dose of 30 mg/kg to reach the 50% effect level in the data set with tonic extensor seizure (ED50). In data set [1], the minimal effective dose was found to be 10 mg/kg.

With `COC(=O)NC1=NCC(c2ccccc2)CN1C` (stereo not drawn) [5|H|H|CH3|CH3OC(O)-, l-Methyl-2-methoxycarbonylamino-5-phenyl-1,4,5,6-tetrahydropyrimidine], the minimal effective dose in data set [1] stood at 0.04 mg/kg.

`CCOC(=O)NC1=NCC(c2ccccc2)CN1` (centres unmarked) [5|H|H|H|CH3CH2OC(O)-, 2-ethoxycarbonylamino-5-phenyl-1,4,5,6-tetrahydropyrimidine]: in data set [1], the minimal effective dose was 0.04 mg/kg.

As for `NC1=NC(c2ccccc2)CCN1` (centres unmarked) [4|H|H|H|H, 2-amino-4-phenyl-1,4,5,6-tetrahydropyrimidine], the minimal effective dose in data set [1] was 10 mg/kg.

Consider `COC(=O)NC1=NC(c2ccccc2)CCN1` (centres unmarked) [4|H|H|H|CH3OC(O)-, 2-methoxycarbonylamino-4-phenyl-1,4,5,6-tetrahydropyrimidine], for which, in data set [1], the minimal effective dose was found to be 2.5 mg/kg.

Turning to `NC1=NCC(c2cccc(Br)c2)CN1` (centres unmarked) [5|H|3-Br|H|H-, 2-amino-5-(3-bromophenyl)-1,4,5,6-tetrahydropyrimidine], the ED50 (usually the dose that gives a 50% effect, or the effect in half of the subjects) in the data set on tonic extensor seizure is 47 mg/kg. The minimal effective dose in data set [1] is 10 mg/kg.

Consider `CC(C)OC(=O)NC1=NCC(c2ccccc2)CN1` (centres unmarked) [5|H|H|H|(CH3)2CHOC(O)-, 2-isopropoxycarbonylamino-5-phenyl-1,4,5,6-tetrahydropyrimidine], for which the minimal effective dose in data set [1] was 0.04 mg/kg.

Take `COC(=O)NC1=NCC(c2ccccc2)CN1.O=C(O)/C=C\C(=O)O` (centres unmarked) [2-Methoxycarbonylamino-5-phenyl-1,4,5,6-tetrahydropyrimidine, maleate]: the “No. of Deaths” value in the data set with male mice (ICR-Simonsen) (Dose 10 mg/kg i.p.) stood at 0; with male mice (ICR-Simonsen) (Dose 15 mg/kg i.p.), 0; with male mice (ICR-Simonsen) (Dose 20 mg/kg i.p.), 0; with male mice (ICR-Simonsen) (Dose 25 mg/kg i.p.), 0; in the data set with male mice (ICR-Simonsen) (Dose 27.5 mg/kg i.p.), 4; in the data set with male mice (ICR-Simonsen) (Dose 30 mg/kg i.p.), 5. In addition, the onset of effects entry in the data set on male mice (ICR-Simonsen) (after drug administration, i.p., mice) is reported as “less than five minutes”. Also, the “surviving animals appeared normal” value with male mice (ICR-Simonsen) (after drug, i.p., mice) is 90 to 120 min. The Behavioral effects observed entry in the data set on male mice (ICR-Simonsen) (i.p., 10-30 mg/kg, observed for 2 hours post drug) is “decreased motor activity, ataxia exophthalmia piloerection increased induced activity, dysporea (increased depth and decreased rate of respiration), lacrimation twitching, moderate clonic convulsions and death”. In addition, in data set [2], the LD50 – broadly, the dose at which mortality reaches 50% – was found to be 26.5 mg/kg.

In the data set on tonic extensor seizure, `COC(=O)NC1=NCC(c2ccccc2Cl)CN1` (centres unmarked) [5|H|2-Cl|H|CH3OC(O)-, 2-methoxycarbonylamino-5-(2-chlorophenyl)-1,4,5,6-tetrahydropyrimidine] returned an ED50 of 42 mg/kg. Besides, the minimal effective dose in data set [1] stood at 10 mg/kg.

Take `COC(=O)NC1=NCC(c2cccc(Br)c2)CN1` (centres unmarked) [5|H|3-Br|H|CH3OC(O)-, 2-methoxycarbonylamino-5-(3-bromophenyl)-1,4,5,6-tetrahydropyrimidine]: in data set [1], the minimal effective dose was determined as 1 mg/kg.

Take `COC(=O)NC1=NCC(c2ccccc2)CN1` (centres unmarked) [5|H|H|H|CH3OC(O)-, 2-methoxycarbonylamino-5-phenyl-1,4,5,6-tetrahydropyrimidine]: the minimal effective dose in data set [1] stood at 0.0006 mg/kg.

`COC(=O)NC1=NCC(c2ccc(F)cc2)CN1` (centres unmarked) [5|H|4-F|H|CH3OC(O)-, 2-methoxycarbonylamino-5-(4-fluorophenyl)-1,4,5,6-tetrahydropyrimidine] showed an ED50 in the data set on tonic extensor seizure of 100 mg/kg. Further, the minimal effective dose in data set [1] amounted to 0.15 mg/kg.

Turning to `CCCOC(=O)NC1=NCC(c2cccc(Br)c2)CN1` (centres unmarked) [5|H|3-Br|H|CH3(CH)2OC(O)-, 2-n-propoxycarbonylamino-5-(3-bromophenyl)-1,4,5,6-tetrahydropyrimidine], the minimal effective dose in data set [1] came to 1 mg/kg.

Take `CC(C)OC(=O)NC1=NCC(c2c(Cl)cccc2Cl)CN1` (centres unmarked) [5|2-Cl|6-Cl|H|(CH3)2CHOC(O)-, 2-i-propoxycarbonylamino-5-(2,6-dichlorophenyl)-1,4,5,6-tetrahydropyrimidine]: the minimal effective dose in data set [1] came out at 1 mg/kg.

In the case of `COC(=O)NC1=NCC(c2ccc(Cl)cc2Cl)CN1` (centres unmarked) [5|2-Cl|4-Cl|H|CH3OC(O)-, 2-methoxycarbonylamino-5-(2,4-dichlorophenyl)-1,4,5,6-tetrahydropyrimidine], in the data set on jaw opening reflex, the 50% effect level (ED50) was put at a dose of 25 mg/kg. Moreover, in data set [1], the minimal effective dose stood at 1 mg/kg.

`COC(=O)NC1=NC(c2ccccc2C(F)(F)F)CCN1` (centres unmarked) [4|H|2-CF3|H|CH3OC(O)-, 2-methoxycarbonylamino-4-(2-trifluoromethylphenyl)-1,4,5,6-tetrahydropyrimidine] came in with an ED50 in the data set on tonic extensor seizure of 44 mg/kg. Besides, the minimal effective dose in data set [1] was 1 mg/kg.

Turning to `NC1=NCC(c2ccccc2)CN1` (centres unmarked) [5|H|H|H|H, 2-amino-5-phenyl-1,4,5,6-tetrahydropyrimidine], the minimal effective dose in data set [1] is 0.01 mg/kg.

Turning to `COC(=O)NC1=NCC(c2cccc(OC)c2)CN1` (centres unmarked) [5|H|3-MeO|H|CH3OC(O)-, 2-methoxycarbonylamino-5-(3-methoxyphenyl)-1,4,5,6-tetrahydropyrimidine], the median effective dose (ED50) in the data set on jaw opening reflex is 7 mg/kg. Besides, the minimal effective dose in data set [1] came out at 10 mg/kg.

With `COC(=O)NC1=NCC(c2c(Cl)cccc2Cl)CN1` (centres unmarked) [5|2-Cl|6-Cl|H|CH3OC(O)-, 2-methoxycarbonylamino-5-(2,6-dichlorophenyl)-1,4,5,6-tetrahydropyrimidine], in data set [1], the minimal effective dose came to 0.15 mg/kg.

In the data set on tonic extensor seizure, `COC(=O)NC1=NCC(c2ccc(C(C)C)cc2)CN1` (centres unmarked) [5|H|4-(CH3)2CH-|H|CH3OC(O), 2-methoxycarbonylamino-5-(4-isopropylphenyl)-1,4,5,6-tetrahydropyrimidine] yielded an ED50 of 55 mg/kg.

In the case of `COC(=O)NC1=NC(c2cccc(OC)c2)CCN1` (centres unmarked) [4|H|3-CH3O|H|CH3OC(O)], the minimal effective dose in data set [1] was 10 mg/kg.

Consider `COC(=O)NC1=NC(c2ccc(F)cc2)CCN1` (centres unmarked) [4|H|4-F|H|CH3COC(O)-, 2-methoxycarbonylamino-4-(4-fluorophenyl)-1,4,5,6-tetrahydropyrimidine], for which the minimal effective dose in data set [1] came to 1 mg/kg.
